# Measurements published in ChEMBL document CHEMBL5375966, “Exploiting the "Hot-Spots" of Hsp70-Bim Protein-Protein Interaction to Optimize the 1-Oxo-1H-phenalene-2,3-dicarbonitrile Analogues as Specific Hsp70-Bim Inhibitors” (J Med Chem, 2023).
# pEC50, pIC50, pKd, pKi: −log10 of the molar value. The source made the active and inactive calls. The calls are words filed in the database; no cut-off is given here.
# Columns and labels:
# [1] = Inhibition of Fam-labeled BimBH3 peptide binding to N-terminal 6His-tagged human recombinant HSP70 NBD (1 to 383 residues) expressed in Escherichia coli BL21 (DE3) assessed as inhibition constant incubated for 24 hrs by fluorescence polarization assay
# [2] = Inhibition of Bim (unknown origin)- N-terminal 6His-tagged human recombinant HSP70 NBD (1 to 383 residues) expressed in Escherichia coli BL21 (DE3) protein protein interaction assessed as suppression of BimBH3-stimulated HSP70 ATPase activity
# Homo sapiens = species on record: Homo sapiens; assay: Inhibition of N-terminal 6His-tagged human recombinant HSP70 NBD (1 to 383 residues) expressed in Escherichia coli BL21 (DE3) ATPase activity
# BV-173 = assay: Induction of apoptosis in human BV-173 cells incubated for 24 hrs by annexin V/PI staining based flow cytometry analysis; format: functional, cell-based; conditions: BV-173, 24 h
# K562 [3] = assay: Induction of apoptosis in human K562 cells incubated for 24 hrs by annexin V/PI staining based flow cytometry analysis; format: functional, cell-based; conditions: K562, 24 h
# [4] = Induction of apoptosis in human Imatinib-resistant K562-R3 cells incubated for 24 hrs by annexin V/PI staining based flow cytometry analysis; format: functional; conditions: Imatinib-resistant K562-R3 cell
# [5] = Induction of apoptosis in human HEK293 cells incubated for 24 hrs by annexin V/PI staining based flow cytometry analysis; format: toxicity, cell-based
# [6] = Induction of apoptosis in mouse BaF3 cells incubated for 24 hrs by annexin V/PI staining based flow cytometry analysis; format: toxicity, cell-based
# [7] = Inhibition of Fam-labeled BimBH3 peptide binding to wild type N-terminal 6His-tagged human recombinant HSP70 NBD (1 to 383 residues) expressed in Escherichia coli BL21 (DE3) assessed as dissociation constant incubated for 24 hrs by fluorescence polarization assay
# [8] = Inhibition of Fam-labeled BimBH3 peptide binding to N-terminal 6His-tagged human recombinant HSP70 NBD (1 to 383 residues) Y149A mutant expressed in Escherichia coli BL21 (DE3) assessed as dissociation constant incubated for 24 hrs by fluorescence polarization assay
# [9] = Inhibition of Fam-labeled BimBH3 peptide binding to N-terminal 6His-tagged human recombinant HSP70 NBD (1 to 383 residues) D225T mutant expressed in Escherichia coli BL21 (DE3) assessed as dissociation constant incubated for 24 hrs by fluorescence polarization assay
# [10] = Inhibition of Fam-labeled BimBH3 peptide binding to N-terminal 6His-tagged human recombinant HSP70 NBD (1 to 383 residues) Y149A mutant expressed in Escherichia coli BL21 (DE3) assessed as inhibition constant incubated for 24 hrs by fluorescence polarization assay
# [11] = Inhibition of Fam-labeled BimBH3 peptide binding to N-terminal 6His-tagged human recombinant HSP70 NBD (1 to 383 residues) D225T mutant expressed in Escherichia coli BL21 (DE3) assessed as inhibition constant incubated for 24 hrs by fluorescence polarization assay
# HEK293 = assay: Induction of apoptosis in human HEK293 cells assessed as apoptotic rate at 15 uM incubated for 24 hrs by annexin V/PI staining based flow cytometry analysis relative to control; format: toxicity, cell-based; conditions: hek293, 24 h
# BaF3 = assay: Induction of apoptosis in mouse BaF3 cells assessed as apoptotic rate at 15 uM incubated for 24 hrs by annexin V/PI staining based flow cytometry analysis relative to control; format: toxicity, cell-based; conditions: baf3, 24 h
# K562 [12] = assay: Inhibition of HSP70-Bim protein protein interaction in human K562 cells incubated for 12 hrs by Co-IP analysis; format: cell-based; conditions: dose 0-5 µM
# K562 [13] = assay: Inhibition of HSP70-Bag3 protein protein interaction in human K562 cells at 10 uM incubated for 12 hrs by Co-IP analysis; format: cell-based
# K562 [14] = assay: Inhibition of HSP70-Bim protein protein interaction in human K562 cells assessed as decrease in AKT protein expression at 2 uM incubated for 12 hrs by Western blot analysis; format: cell-based
# K562 [15] = assay: Inhibition of HSP70-Bim protein protein interaction in human K562 cells assessed as decrease in EIF4e protein expression at 2 uM incubated for 12 hrs by Western blot analysis; format: cell-based
# K562 [16] = assay: Inhibition of HSP70-Bim protein protein interaction in human K562 cells assessed as decrease in AKT phosphorylation at 2 uM incubated for 12 hrs by Western blot analysis; format: cell-based
# K562 [17] = assay: Inhibition of HSP70-Bim protein protein interaction in human K562 cells assessed as decrease in EIF4e phosphorylation at 2 uM incubated for 12 hrs by Western blot analysis; format: cell-based
# K562 [18] = assay: Induction of apoptosis in HSP70 shRNA transfected human K562 cells assessed as increase in Annexin V+ cells at 2 uM incubated for 24 hrs by Annexin V/PI staining based flow cytometry analysis; format: functional, cell-based
# K562 [19] = assay: Induction of apoptosis in HSP70 shRNA transfected human K562 cells assessed as increase in cleaved PARP level at 2 uM incubated for 24 hrs by Western blot analysis; format: functional, cell-based
# K562 [20] = assay: Induction of apoptosis in Bim shRNA transfected human K562 cells assessed as increase in Annexin V+ cells at 2 uM incubated for 24 hrs by Annexin V/PI staining based flow cytometry analysis; format: functional, cell-based
# K562 [21] = assay: Induction of apoptosis in Bim shRNA transfected human K562 cells assessed as increase in cleaved PARP level at 2 uM incubated for 24 hrs by Western blot analysis; format: functional, cell-based
# [22] = Cmax in Sprague-Dawley rat at 3 mg/kg, iv measured upto 24 hrs by LC-MS/MS analysis; format: ADME, organism-based; parameters: dose 3 mg/kg, time < 24 hrs, route iv; conditions: in vivo
# [23] = Tmax in Sprague-Dawley rat at 3 mg/kg, iv measured upto 24 hrs by LC-MS/MS analysis; format: ADME, organism-based; conditions: in vivo
# [24] = Half life in Sprague-Dawley rat at 3 mg/kg, iv measured upto 24 hrs by LC-MS/MS analysis; format: ADME, organism-based; conditions: in vivo
# [25] = Clearance in Sprague-Dawley rat at 3 mg/kg, iv measured upto 24 hrs by LC-MS/MS analysis; format: ADME, organism-based; conditions: in vivo
# [26] = AUCt in Sprague-Dawley rat at 3 mg/kg, iv measured upto 24 hrs by LC-MS/MS analysis; format: ADME, organism-based; parameters: time < 24 hrs, dose 3 mg/kg, route iv; conditions: in vivo
# Mus musculus [27] = assay: (§1) In vivo disruption of HSP70-Bim protein protein interaction in BALB/c nu/nu mouse xenografted with Bcr-Abl independent human Imatinib-resistant K562-R1 cells assessed as destabilization of EIF4e protein level at 2 mg/kg, ip administered every day for 14 days and measured on day 15 by immunoblot analysis; format: functional, organism-based; conditions: time 15.0 day
# [28] = test system: Imatinib-resistant K562-R1; assay: Antitumor activity against Bcr-Abl independent human Imatinib-resistant K562-R1 cells xenografted in BALB/c nu/nu mouse assessed as reduction in tumor growth at 2 mg/kg, ip administered every day for 14 days and measured on day 15; format: functional, organism-based; conditions: time 15.0 day
# [29] = Antitumor activity against Bcr-Abl independent human Imatinib-resistant K562-R1 cells xenografted in BALB/c nu/nu mouse assessed as reduction in tumor weight by measuring T/C ratio at 2 mg/kg, ip administered every day for 14 days and measured on day 15; format: functional; conditions: time 14 day
# [30] = Toxicity in BALB/c nu/nu mouse xenografted with Bcr-Abl independent human Imatinib-resistant K562-R1 cells assessed as reduction in body weight at 2 mg/kg, ip administered every day for 14 days and measured every 3 days; format: organism-based; conditions: in vivo, 336 h, time 14 day
# Mus musculus [31] = assay: In vivo disruption of HSP70-Bim protein protein interaction in BALB/c nu/nu mouse xenografted with Bcr-Abl independent human Imatinib-resistant K562-R1 cells at 2 mg/kg, ip administered every day for 14 days and measured on day 15 by Co-IP analysis; format: functional, organism-based; conditions: time 15.0 day
# Mus musculus [32] = assay: as §1, with “AKT” for “EIF4e”; format: functional, organism-based; conditions: time 15.0 day
structure (smiles),measurement,setting,value
CCNCCNC1=C(C#N)C(=O)c2cccc3c(SC4CCCCC4)ccc1c23,pKi,[1],6.14
same,inhibition,[2],Active
N#CC1=C(NCCC(=O)NCc2ccccc2)c2ccc(SC3CCCCC3)c3cccc(c23)C1=O,pKi,[1],4.84
same,inhibition,[2],Active
N#CC1=C(NCCN2CCN(Cc3ccccc3)CC2)c2ccc(SC3CCCCC3)c3cccc(c23)C1=O,pKi,[1],< 4.70
same,inhibition,[2],Active
N#Cc1ccc(COC[C@H]2O[C@@H](n3c(NCc4ccc(Cl)c(Cl)c4)nc4c(N)ncnc43)[C@H](O)[C@@H]2O)cc1,pKi,[1],< 4.70
same,inhibition,Homo sapiens,Active
same,pEC50,BV-173,5.24
same,pEC50,K562 [3],5.11
same,pEC50,[4],5.07
same,EC50 at 24 h,[5],7.7 µM
same,EC50 at 24 h,[6],5.5 µM
CCN(CC)CCNC1=C(C#N)C(=O)c2cccc3c(SC4CCCCC4)ccc1c23,pKi,[1],6.60
same,pIC50,[2],4.80
same,inhibition,[2],Dose-Dependent Effect
same,pKd,[7],6.68
same,pKd,[8],5.80
same,pKd,[9],5.51
same,pKi,[10],5.57
same,pKi,[11],5.29
same,pEC50,BV-173,6.21
same,pEC50,K562 [3],5.89
same,pEC50,[4],6.47
same,Activity,HEK293,< 10%
same,Activity,BaF3,< 10%
same,inhibition,K562 [12],Dose-Dependent Effect
same,inhibition,K562 [13],inactive
same,inhibition,K562 [14],Active
same,inhibition,K562 [15],Active
same,inhibition,K562 [16],Active
same,inhibition,K562 [17],Active
same,Activity,K562 [18],inactive
same,Activity,K562 [19],inactive
same,Activity,K562 [20],inactive
same,Activity,K562 [21],inactive
same,Cmax,[22],2300 ng/mL
same,Tmax,[23],1 h
same,half-life,[24],5.2 h
same,clearance,[25],4.1 mL/min/kg
same,AUC(0-t) at 24 h,[26],12200 ng·h/mL
same,Activity,Mus musculus [27],Active
same,Activity,[28],Active
same,T/C,[29],33.51%
same,Activity,[30],Non-Toxic
same,Activity,Mus musculus [31],Active
same,Activity,Mus musculus [32],Active
COC(=O)CCNC1=C(C#N)C(=O)c2cccc3c(Sc4ccccc4)ccc1c23,pKi,[1],5.35
same,inhibition,[2],Active
COC(=O)CCNC1=C(C#N)C(=O)c2cccc3c(SC4CCCCC4)ccc1c23,pKi,[1],5.59
same,inhibition,[2],Active
same,pEC50,BV-173,5.21
same,pEC50,K562 [3],5.03
same,pEC50,[4],5.77
same,Activity,HEK293,< 10%
same,Activity,BaF3,< 10%
COC(=O)CCNC1=C(C#N)C(=O)c2cccc3c(Sc4cccc(N)c4)ccc1c23,pKi,[1],4.72
same,inhibition,[2],Active
CCCCNC(=O)CCNC1=C(C#N)C(=O)c2cccc3c(SC4CCCCC4)ccc1c23,pKi,[1],6.06
same,inhibition,[2],Active
CCN(CC)CCNC1=C(C#N)C(=O)c2cccc3c(SC4CCCC4)ccc1c23,pKi,[1],6.49
same,inhibition,[2],Active
N#CC1=C(NCCC(=O)O)c2ccc(SC3CCCCC3)c3cccc(c23)C1=O,pKi,[1],< 4.70
same,inhibition,[2],Active
N#CC1=C(NCCN2CCOCC2)c2ccc(SC3CCCCC3)c3cccc(c23)C1=O,pKi,[1],5.74
same,inhibition,[2],Active
COC(=O)CCNC1=C(C#N)C(=O)c2cccc3c(SC4CCCC4)ccc1c23,pKi,[1],5.66
same,inhibition,[2],Active
COC(=O)CCNC1=C(C#N)C(=O)c2cccc3c(Sc4ccc(N)cc4)ccc1c23,pKi,[1],< 4.70
same,inhibition,[2],Active
CN(C)CCNC1=C(C#N)C(=O)c2cccc3c(SC4CCCCC4)ccc1c23,pKi,[1],6.24
same,inhibition,[2],Active
same,pEC50,BV-173,5.96
same,pEC50,K562 [3],5.62
same,pEC50,[4],6.35
same,Activity,HEK293,> 10%
same,Activity,BaF3,< 10%
CCOC(=O)CN1CCN(CCNC2=C(C#N)C(=O)c3cccc4c(SC5CCCCC5)ccc2c34)CC1,pKi,[1],5.39
same,inhibition,[2],Active
COC(=O)CCNC1=C(C#N)C(=O)c2cccc3c(Sc4ccc(C(C)(C)C)cc4)ccc1c23,pKi,[1],< 4.70
same,inhibition,[2],Active
CCn1c(=O)/c(=C2\Sc3ccccc3N2C)s/c1=C\c1cccc[n+]1CC,inhibition,K562 [13],Active
COC(=O)CCNC1=C(C#N)C(=O)c2cccc3c(Sc4ccc(Br)cc4)ccc1c23,pKi,[1],5.60
same,inhibition,[2],Active
CCCCSc1ccc2c3c(cccc13)C(=O)C(C#N)=C2NCCC(=O)OC,pKi,[1],4.84
same,inhibition,[2],Active
COC(=O)CCNC1=C(C#N)C(=O)c2cccc3c(Sc4ccc(C)cc4)ccc1c23,pKi,[1],5.47
same,inhibition,[2],Active
COC(=O)CCNC1=C(C#N)C(=O)c2cccc3c(SCCc4ccccc4)ccc1c23,pKi,[1],< 4.70
same,inhibition,[2],Active
COC(=O)CCNC1=C(C#N)C(=O)c2cccc3c(Sc4ccc(C(C)C)cc4)ccc1c23,pKi,[1],4.79
same,inhibition,[2],Active
COC(=O)CCNC1=C(C#N)C(=O)c2cccc3c(SCCO)ccc1c23,pKi,[1],< 4.70
same,inhibition,[2],Active
N#CC1=C(NCCC(=O)NC2CCCCC2)c2ccc(SC3CCCCC3)c3cccc(c23)C1=O,pKi,[1],4.96
same,inhibition,[2],Active
